Tests used:
[1] = target: T1, human NaP2b (SLC34A2) (Homo sapiens, UniProt O95436); experiment: Inhibition of NaP2b-mediated Pi (33P) uptake in transfected HEK293 cells, human NaP2b; type: cell-based; conditions: read-out: pIC50 range for human NaP2b (converted)
T1 construct: host or cells: HEK293
T1 sequence (O95436 1-690): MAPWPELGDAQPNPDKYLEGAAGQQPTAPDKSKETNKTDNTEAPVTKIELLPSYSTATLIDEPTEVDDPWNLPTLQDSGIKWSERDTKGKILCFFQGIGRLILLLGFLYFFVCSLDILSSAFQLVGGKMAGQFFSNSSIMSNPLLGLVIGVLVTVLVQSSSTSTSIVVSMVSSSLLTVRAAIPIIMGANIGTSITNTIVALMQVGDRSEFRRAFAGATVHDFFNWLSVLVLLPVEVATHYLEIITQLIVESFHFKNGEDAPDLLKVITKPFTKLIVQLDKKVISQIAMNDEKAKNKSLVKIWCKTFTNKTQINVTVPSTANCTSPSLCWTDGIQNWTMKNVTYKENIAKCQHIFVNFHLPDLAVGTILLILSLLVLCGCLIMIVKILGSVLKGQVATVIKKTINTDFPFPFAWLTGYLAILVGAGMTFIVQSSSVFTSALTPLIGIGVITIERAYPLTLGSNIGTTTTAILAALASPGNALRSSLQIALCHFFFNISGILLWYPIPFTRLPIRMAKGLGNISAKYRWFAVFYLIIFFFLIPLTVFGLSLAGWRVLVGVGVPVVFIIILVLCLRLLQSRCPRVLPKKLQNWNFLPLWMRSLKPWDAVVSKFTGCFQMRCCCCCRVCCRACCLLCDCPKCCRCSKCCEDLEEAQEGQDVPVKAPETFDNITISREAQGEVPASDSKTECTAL
Experimental: HEK293 cells were obtained from the American Type Culture collection and propagated per their instructions. Expression clones for rat and human NaP2b (SLC34A2) were obtained from Open Biosystems (Catalog numbers MRN1768-9510282, and MHS1010-99823026, respectively). The sequence of the human protein was mutated to insert a threonine after residue 37, and to introduce a N39D mutation.
The rate of phosphate (Pi) uptake into HEK293 cells was measured using a modification of the method described by Mohrmann et al. (Mohrmann, I., Mohrmann, M., Biber, J., and Murer, H. (1986) Am. J. Phys. 250(3 Pt 1):G323-30.) Transfected HEK293 cells were treated with a pharmacological agent to minimize endogenous PiT-mediated phosphate transport activity, such that the only remaining sodium-dependent phosphate transport activity is that which was bestowed by introduction of the NaP2b genes.
Cells were seeded into 96-well plates at 25,000 cells/well and cultured overnight. Lipofectamine 2000 (Invitrogen) was used to introduce the NaP2b cDNA, and the cells were allowed to approach confluence during a second overnight incubation. […] Cells were then overlayed with either choline uptake buffer or sodium uptake buffer (14 mM Tris, 137 mM sodium chloride, 5.4 mM KCl, 2.8 mM CaCl2, 1.2 mM MgSO4, 100 uM KH2PO4, PiT-silencing agent, 1 mg/mL Bovine Serum Albumin, pH 7.4) containing 6-9 uCi/mL ^33P orthophosphoric acid (Perkin Elmer) and test compound. Each compound was tested at twelve concentrations ranging from 0.1 nM to 30 uM. Assays were run in duplicate.
After incubation for 3-30 minutes at room temperature, assay mixtures were removed, and the cells were washed twice with ice cold stop solution (137 mM sodium chloride, 14 mM Tris, pH 7.4). Cells were lysed by addition of 20 μL 0.1% Tween 80 followed by 100 μL scintillation fluid, and counted using a TopCount (Perkin Elmer).
pIC50 (the negative log of the IC50) values of the test compounds were calculated using GraphPad Prism.

[2] = target: T2, rat NaP2b (SLC34A2) (Rattus norvegicus, UniProt Q9JJ09); experiment: Inhibition of NaP2b-mediated Pi (33P) uptake in transfected HEK293 cells, rat NaP2b; type: cell-based; conditions: 33P Pi uptake, 0.1 mM phosphate, value given as pIC50 range
T2 construct: host or cells: HEK293
T2 sequence (Q9JJ09 1-695): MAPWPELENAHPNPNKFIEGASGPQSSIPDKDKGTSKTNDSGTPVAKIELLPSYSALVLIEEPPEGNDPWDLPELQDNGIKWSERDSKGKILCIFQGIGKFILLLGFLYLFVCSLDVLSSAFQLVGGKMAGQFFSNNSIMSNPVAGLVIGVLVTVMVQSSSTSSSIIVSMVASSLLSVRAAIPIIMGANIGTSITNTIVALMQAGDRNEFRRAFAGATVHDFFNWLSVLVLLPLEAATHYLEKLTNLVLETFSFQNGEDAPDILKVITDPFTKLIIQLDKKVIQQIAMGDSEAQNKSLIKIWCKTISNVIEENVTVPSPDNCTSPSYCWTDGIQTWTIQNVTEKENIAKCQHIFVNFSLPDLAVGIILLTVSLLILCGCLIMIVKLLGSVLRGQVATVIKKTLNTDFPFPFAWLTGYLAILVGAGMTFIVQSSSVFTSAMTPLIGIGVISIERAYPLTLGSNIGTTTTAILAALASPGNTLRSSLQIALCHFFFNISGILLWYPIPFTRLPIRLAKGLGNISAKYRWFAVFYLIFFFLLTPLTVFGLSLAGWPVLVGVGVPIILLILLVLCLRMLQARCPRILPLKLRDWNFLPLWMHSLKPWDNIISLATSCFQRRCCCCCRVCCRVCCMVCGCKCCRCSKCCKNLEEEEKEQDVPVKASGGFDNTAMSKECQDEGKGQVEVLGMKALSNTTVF
Procedure, shortened: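 HEK293 cells were transiently transfected with NaP2b cDNA using Lipofectamine and grown near confluence. Compounds were tested at twelve concentrations from 0.1 nM to 30 uM in duplicate, and 33P-phosphate uptake was counted by scintillation after lysis. Results are expressed as pIC50.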

SMILES	IC50 [1] [nM]	IC50 [2] [nM]
CCN(CC)c1ccc(NC(=O)c2cccc(CCCOCCOCCOCCOCCC(=O)NCCOCCOCCOCCOCCOCCOCCOCCOC)c2)c(-c2cc(C(=O)N[C@H]3CCCc4ccccc43)ccn2)c1 [Example 279]	1000 to 7940	1000 to 7940
O=C(CCOCCOCCOCCOCCCc1cccc(C(=O)Nc2ccc(N3CCCCC3)cc2-c2cc(C(=O)NCc3cccc(C(F)(F)F)c3)ccn2)c1)NC(CO)(CO)CO [Example 278]	1000 to 7940	1000 to 7940
CCN(CC)c1ccc(NC(=O)c2cccc(CCCOCCOCCOCCOCCO)c2)c(-c2cc(C(=O)NCc3cccc(C(F)(F)F)c3)ccn2)c1 [Example 267, 2-(5-(diethylamino)-2-(3-(1-hydroxy-3,6,9,12-tetraoxapentadecan-15-yl)benzamido)phenyl)-N-(3-(trifluoromethyl)benzyl)isonicotinamide]	< 1000	< 1000
O=C(NCc1cccc(C(F)(F)F)c1)c1ccnc(-c2cc(N3CCCCC3)ccc2NC(=O)c2cccc(CCCOCCOCCOCCOCCC(=O)N(CCO)CCO)c2)c1 [Example 277]	1000 to 7940	1000 to 7940
CCN(CC)c1ccc(NC(=O)c2cccc(CCCOCCOCCOCCOCCNC(=O)N(CCO)CCO)c2)c(-c2cc(C(=O)NCc3cccc(C(F)(F)F)c3)ccn2)c1 [Example 274, 2-(5-(diethylamino)-2-(3-(1-hydroxy-3-(2-hydroxyethyl)-4-oxo-8,11,14,17-tetraoxa-3,5-diazaicosan-20-yl)benzamido)phenyl)-N-(3-(trifluoromethyl)benzyl)isonicotinamide]	1000 to 7940	1000 to 7940
CN(CCO)C(=O)c1cccc(C(=O)Nc2ccc(N3CCCCC3)cc2-c2cc(C(=O)NC3CCCc4ccccc43)ccn2)c1 (stereo in doubt) [Example 115, (S)—N^1-(2-hydroxyethyl)-N′-methyl-N^3-(4-(piperidin]-yl)-2-(4-((1,2,3,4-tetrahydronaphthalen-1-yl)carbamoyl)pyridin-2-yl)phenyl)isophthalamide]	< 1000	< 1000
CN(CCOCCOCCOCCC(=O)N1CCN(CCOCCO)CC1)C(=O)Cc1cccc(SCc2cccc(C(=O)Nc3ccc(N4CCCCC4)cc3-c3cc(C(=O)N[C@H]4CCCc5ccccc54)ccn3)c2)c1 [Example 236, (S)-2-(2-(3-((3-(15-(4-(2-(2-hydroxyethoxy)ethyl)piperazin-1-yl)-3-methyl-21-2.15-dioxo-6,9,12-trioxa-3-azapentadecyl)phenylthio)methyl)benzamido)-5-(piperidin-1-yl)phenyl)-N-(1,2,3,4-tetrahydronaphthalen-1-yl)isonicotinamide]	< 1000	< 1000

Continued, values first:

IC50 [1] [nM]	IC50 [2] [nM]	SMILES
< 1000	1000 to 7940	CCN(CC)c1ccc(NC(=O)c2cccc(CCCOCCOCCOCCOCCC(=O)N3CCN(S(=O)(=O)C(C)C)CC3)c2)c(-c2cc(C(=O)NCc3cccc(C(F)(F)F)c3)ccn2)c1 [Example 292, 2-(5-(diethylamino)-2-(3-(16-(4-(isopropylsulfonyl)piperazin-1-yl)-16-oxo-4,7,10,13-tetraoxahexadecyl)benzamido)phenyl)-N-(3-(trifluoromethyl)benzyl)isonicotinamide]
1000 to 7940	1000 to 7940	CCN(CC)c1ccc(NC(=O)c2cccc(C(=O)N(C)CCN(CCOC)CCOCCOCCOCCC(=O)N(C)CCN3CCOCC3)c2)c(-c2cc(C(=O)NCc3cccc(C(F)(F)F)c3)ccn2)c1 [Example 338, N^1-(4-(Diethylamino)-2-(4-(3-(trifluoromethyl)benzylcarbamoyl)pyridin-2-yl)phenyl)-N^3-(3-(2-methoxyethyl)-16-methyl-18-morpholino-15-oxo-6,9,12-trioxa-3,16-diazaoctadecyl)-N^3-methylisophthalamide]
< 1000	< 1000	CCN(CC)c1ccc(NC(=O)c2cccc(CCCOCCOCCOCCOCCC(=O)N(C)CCOCCOCCOCCOCCOCCOCCOC)c2)c(-c2cc(C(=O)N[C@H]3CCCc4ccccc43)ccn2)c1 [Example 280]

From patent publication US20140023611A1 (priority 2010, published 2014)
